One series concerns HIV strain RF. The series can be described thus: Ability to prevent virus-induced cell death using MT4 cells and strain RF (Example III). Type of series: cell-based. To be noted: MT4 cells, 7 days, MTT, 10080 min. As for the experimental part: (§1) Various oligomers were dissolved in RPMI and were then assayed for anti-HIV activity by making doubling dilutions of the solutions across a 96 well microtitre plate. To each well were then added 5×10^4 cells and 100 TCID50 of virus and the plates incubated at 37° C. for 7 days. MTT was added to each well and the plates incubated for a further 2 hours. The blue formazan crystals were dissolved using acidic isopropanol, and the absorbance measured at 540 nm.

For a further series, the system named is MT4 cells. Description: Toxicity to MT4 cells (TD50, Table IV, MTT). Format: cell-based. The note with it: MT4 cells, 7 days, MTT. Here is the method:
as §1

For a further series, the system named is HIV (Strain RF). The series can be described thus: Anti-HIV activity in C8166 cells infected with HIV strain RF: syncytia and p24 (Example VI). Type of series: cell-based. To be noted: for p24 % of VIRUS CONTROL: 2880 min. Here is the method: Protocol: C8166 cells were infected with HIV (Strain RF) for 1 hour at room temperature to give a multiplicity of infection of approximately 0.01 infectious units per cell.

Another series concerns HIV (Strain GB8). Description: JM cells infected with HIV strain GB8: syncytia and p24 (Example VII). Format: cell-based. To be noted: for p24 3 days p.i.: supernatant screened at 1/100 dilution. As for the experimental part: JM cells were infected with HIV (Strain GB8) to give approximately 200 syncytia/1×10^5 cells after 3 days; virus infection was for 1 hour at room temperature.

For another series, the system named is HIV-I (GB8). The series can be described thus: Pretreatment of JM cells and block of HIV-I (GB8) infection (Example IV). To be noted: pretreated overnight at 20 μg/mL.
The subject of a further series is HIV-I (RF). Description: Effect of treating HIV-I (RF)-infected cells (C8166) 24 hours post-infection (Example V, Table VII). The note with it: for P24 DAY 6 p.i. / SYNCYTIA/WELL DAY 2 / SYNCYTIA/WELL DAY 3: 10 μM; for activity at 10 µM: Human immunodeficiency virus 1, C8166, 144 h, read-out: P24 % CONTROL, 10 μM.

Like-named read-outs stand apart in the source and are kept apart here.

Method for HIV-I (GB8): JM cells were pretreated overnight at 37° C. with different compounds at 20 μg/mL or left untreated. The cells were washed 3 times in RPMI medium and then infected with HIV-I (GB8) for 2 hours at room temperature. The cells were again washed 3 times in RPMI medium and resuspended in fresh medium prior to being distributed into duplicate wells and incubated at 37° C. After 2 days syncytia were scored and the cell free supernatant fluid harvested and assayed for P24 viral core antigen using the Coulter™ HIV antigen assay.
Method for HIV-I (RF): Cells were infected with strain RF or GB8 for 24 hours at 37° C. at a multiplicity of infection of 0.001. Cells were washed three times to remove residual virus and then replated into fresh growth medium. Cells were then treated for 24 and 48 hours post-infection (p.i.) with the indicated concentrations of test compounds. Syncytia and P24 antigen levels were determined on the indicated days p.i. by methods described before.

“poly{imino[2,2'-disulfo(1,1'-biphenyl)-4,4'-diyl]iminocarbonyl-1,4-phenylenecarbonyl}, alpha-{[(4-methylphenyl)amino]carbonyl}-omega-[(4-methylphenyl)amino]- [Example 8B]” showed an ED50 in the series with HIV strain RF of 2.1 µg/mL. In the series on MT4 cells, this compound showed a TD50 greater than 100 µg/mL.
As for “poly{oxy[2,2'-disulfo(1,1'-biphenyl)-4,4'-diyl]oxy-carbonyl-1,4-phenylenecarbonyl}- [Example 6]”, the “p24 Day 2” value with HIV (Strain RF) (12 μg/ml), in the series on HIV (Strain RF) (25 μg/ml), in the series with HIV (Strain RF) (50 μg/ml) and in the series with HIV (Strain RF) (100 μg/ml) was “neg” throughout. In addition, the “p24 % of VIRUS CONTROL” value with HIV (Strain RF) (12 μg/ml), in the series on HIV (Strain RF) (25 μg/ml), in the series with HIV (Strain RF) (50 μg/ml) and in the series on HIV (Strain RF) (100 μg/ml) was 0% in each case. In addition, the “SYNCYTIA Day 2” value with HIV (Strain RF) (50 μg/ml) and in the series with HIV (Strain RF) (100 μg/ml) was 0 in each case. Moreover, the “MEAN SYNCYTIA 3 days p.i.” value was found to be 25 in the series on HIV (Strain GB8) (25 μg/ml), 12 with HIV (Strain GB8) (50 μg/ml), 0 with HIV (Strain GB8) (100 μg/ml) and 0 with HIV (Strain GB8) (200 μg/ml). Besides, the “p24 3 days p.i.” value was 6800 pg/mL with HIV (Strain GB8) (25 μg/ml), “neg” in the series on HIV (Strain GB8) (50 μg/ml) and “neg” in the series on HIV (Strain GB8) (100 μg/ml).
As for Dextran Sulfate [reference compound], the P24 with HIV-I (GB8) was determined as 28710 pg/mL. Moreover, the “MEAN SYNCYTIA” value with HIV-I (GB8) (2 days) amounted to 184. In the series on HIV-I (GB8) (% of control, 2880 min), the P24 % is recorded as 101% and the SYNCYTIA % was 155%.
Regarding `Nc1ccn([C@H]2CC[C@@H](CO)O2)c(=O)n1` [ddC, reference compound], in the series with HIV-I (RF) (addition 0 hours p.i.), the “P24 DAY 6 p.i.” value is 13000 pg/mL, the “SYNCYTIA/WELL DAY 2” value is 0, the “SYNCYTIA/WELL DAY 3” value worked out at 0 and the activity at 10 µM came to 1.4%. In the series on HIV-I (RF) (addition 24 hours p.i.), the “P24 DAY 6 p.i.” value was determined as 420000 pg/mL and the activity at 10 µM is 44.2%. Also, in the series on HIV (Strain GB8) (0.01 μg/ml), the “MEAN SYNCYTIA 3 days p.i.” value turned out to be 80 and the “p24 3 days p.i.” value turned out to be 5400 pg/mL. Also, in the series on HIV (Strain GB8) (0.1 μg/ml), the “MEAN SYNCYTIA 3 days p.i.” value came out at 2 and the “p24 3 days p.i.” value was “neg”. In the series on HIV (Strain GB8) (1 μg/ml), the “MEAN SYNCYTIA 3 days p.i.” value is 0 and the “p24 3 days p.i.” value is reported as “neg”. For the same compound, in the series on HIV (Strain GB8) (10 μg/ml), the “MEAN SYNCYTIA 3 days p.i.” value is recorded as 0 and the “p24 3 days p.i.” value was “neg”.
For “poly[oxy(2,5-disulfo-1,4-phenylene)oxycarbonyl], alpha-[(4-methylphenoxy)carbonyl]-omega-(4-methylphenoxy)- [Example 4]”, the “p24 Day 2” value with HIV (Strain RF) (12 μg/ml) was 3050 pg/mL; in the series with HIV (Strain RF) (25 μg/ml), 4820 pg/mL; with HIV (Strain RF) (50 μg/ml), 2820 pg/mL; in the series with HIV (Strain RF) (100 μg/ml), 1930 pg/mL. For the same compound, the “p24 % of VIRUS CONTROL” value is listed as 95% in the series on HIV (Strain RF) (12 μg/ml), 100% with HIV (Strain RF) (25 μg/ml), 88% in the series on HIV (Strain RF) (50 μg/ml) and 60% with HIV (Strain RF) (100 μg/ml). Also, the “MEAN SYNCYTIA 3 days p.i.” value was 95 with HIV (Strain GB8) (25 μg/ml), 64 with HIV (Strain GB8) (50 μg/ml), “Toxic” with HIV (Strain GB8) (100 μg/ml) and “Toxic” in the series on HIV (Strain GB8) (200 μg/ml). Also, the “p24 3 days p.i.” value in the series with HIV (Strain GB8) (25 μg/ml) is 6500 pg/mL; with HIV (Strain GB8) (50 μg/ml) it was “neg”.
As for “poly[oxy(2,5-disulfo-1,4-phenylene)oxycarbonyl-1,4-phenylenecarbonyl]- [Example 7]”, the “p24 Day 2” value with HIV (Strain RF) (12 μg/ml) is 3140 pg/mL; in the series with HIV (Strain RF) (25 μg/ml) it was 1450 pg/mL; in the series on HIV (Strain RF) (50 μg/ml) it was 870 pg/mL; in the series on HIV (Strain RF) (100 μg/ml), “neg”. For the same compound, the “p24 % of VIRUS CONTROL” value came out at 98% in the series with HIV (Strain RF) (12 μg/ml), 45% with HIV (Strain RF) (25 μg/ml), 27% in the series with HIV (Strain RF) (50 μg/ml) and 0% in the series with HIV (Strain RF) (100 μg/ml). Further, the “MEAN SYNCYTIA 3 days p.i.” value in the series with HIV (Strain GB8) (25 μg/ml) is 43; with HIV (Strain GB8) (50 μg/ml) it was 24; with HIV (Strain GB8) (100 μg/ml) it was 7; in the series on HIV (Strain GB8) (200 μg/ml), 0. Moreover, the “p24 3 days p.i.” value in the series with HIV (Strain GB8) (25 μg/ml), with HIV (Strain GB8) (50 μg/ml), with HIV (Strain GB8) (100 μg/ml) and in the series on HIV (Strain GB8) (200 μg/ml) was “neg” each time.
In the series with HIV strain RF, “poly[imino(3-sulfo-1,4-phenylene)-1,2-ethenediyl-(2-sulfo-1,4-phenylene)iminocarbonyl], alpha-{[(4-methylphenyl)aminocarbonyl}-omega-[(4-methylphenyl)amino- [Example 2B]” yielded an ED50 of 2.5 µg/mL. In the series with MT4 cells, this compound displayed a TD50 greater than 100 µg/mL.
For the compound `Cc1cn([C@H]2C[C@H](N=[N+]=[N-])[C@@H](CO)O2)c(=O)[nH]c1=O` [AZT, reference compound], the “p24 Day 2” value in the series on HIV (Strain RF) (0.1 μg/ml) is given as “neg”. Besides, in the series with HIV (Strain RF) (1 μg/ml), the “SYNCYTIA Day 2” value is 0 and the “p24 Day 2” value was “neg”. In addition, the activity at 0.1 µg/mL in the series with HIV (Strain RF) (Human immunodeficiency virus 1, C8166, 48 h, 0.1 μg/ml, read-out: p24 % of VIRUS CONTROL) was 0%. Moreover, the activity at 1 µg/mL in the series with HIV (Strain RF) (Human immunodeficiency virus 1, C8166, 48 h, 1 μg/ml, read-out: p24 % of VIRUS CONTROL) was 0%. In the series with HIV-I (RF) (addition 0 hours p.i.), the “P24 DAY 6 p.i.” value came out at 10000 pg/mL, the “SYNCYTIA/WELL DAY 2” value came out at 0, the “SYNCYTIA/WELL DAY 3” value came out at 0 and the activity at 10 µM turned out to be 1.1%. In the series on HIV-I (RF) (addition 24 hours p.i.), the “P24 DAY 6 p.i.” value amounted to 44000 pg/mL and the activity at 10 µM worked out at 4.6%.
As for “poly{oxy[2,2'-disulfo(1,1'-biphenyl)-4,4'-diyl]oxy-carbonyl}, alpha-[(4-methylphenoxy)carbonyl]-omega-(4-methylphenoxy)- [Example 5]”, the “p24 Day 2” value in the series on HIV (Strain RF) (12 μg/ml) was determined as 3250 pg/mL; in the series with HIV (Strain RF) (25 μg/ml), 2320 pg/mL; in the series with HIV (Strain RF) (50 μg/ml), 2780 pg/mL; in the series with HIV (Strain RF) (100 μg/ml), 1060 pg/mL. Further, the “p24 % of VIRUS CONTROL” value in the series with HIV (Strain RF) (12 μg/ml) is 100%; in the series with HIV (Strain RF) (25 μg/ml) it was 73%; in the series with HIV (Strain RF) (50 μg/ml), 87%; in the series on HIV (Strain RF) (100 μg/ml), 33%. In addition, the “MEAN SYNCYTIA 3 days p.i.” value is recorded as greater than 200 in the series with HIV (Strain GB8) (25 μg/ml), 68 in the series with HIV (Strain GB8) (50 μg/ml), 22 with HIV (Strain GB8) (100 μg/ml) and 14 in the series on HIV (Strain GB8) (200 μg/ml). In addition, the “p24 3 days p.i.” value was 67 pg/mL with HIV (Strain GB8) (25 μg/ml), “neg” in the series with HIV (Strain GB8) (50 μg/ml), “neg” with HIV (Strain GB8) (100 μg/ml) and “neg” in the series with HIV (Strain GB8) (200 μg/ml).
Consider “poly[imino(2,5-disulfo-1,4-phenylene)iminocarbonyl], alpha-{[(4-methylphenyl)amino]carbonyl}-omega-[(4-methylphenyl)amino]- [Example 3B]”, for which the ED50 in the series with HIV strain RF came out at 1.7 µg/mL. The compound further displayed a TD50 in the series with MT4 cells greater than 100 µg/mL.
The matching figures for “poly{imino[2,2'-disulfo(1,1'-biphenyl)-4,4'-diyl]iminocarbonyl-1,4-phenylenecarbonyl}, alpha-{[(4-methylphenyl)amino]carbonyl}-omega-[(4-methylphenyl)amino]- [Example 8C]”: 2.2 µg/mL and greater than 100 µg/mL.
On to “poly[imino(3-sulfo-1,4-phenylene)-1,2-ethenediyl-(2-sulfo-1,4-phenylene)iminocarbonyl], alpha-{[(4-methylphenyl)aminocarbonyl}-omega-[(4-methylphenyl)amino- [Example 2A]”, for which the ED50 in the series on HIV strain RF came out at 1.9 µg/mL. For the same compound, the TD50 in the series with MT4 cells was greater than 100 µg/mL.
